Results on 1 molecule are retold here after US7105534B2, “Imidazo[1,2-α]pyridine ether compounds as ion channel modulators” (Cardiome Pharma Corp., priority 2000, dated 2006).

In this test the test system is Sprague Dawley rats. The test can be described thus: Cardiovascular and behavioral effects: ECG changes during i.v. infusion in conscious rats. Type of test: in vivo, rat. On the procedure: Preparative surgery is performed in Sprague Dawley rats weighing 200–300 gm and anaesthetized with 65 mg/kg (i.p.) pentobarbital. The femoral artery and vein are cannulated using polyethylene (PE)-10 tubing. Prior to surgery, this PE-10 tubing had been annealed to a wider gauge (PE-50) tubing for externalization. The cannulated PE-10/PE-50 tubing is passed through a trocar and exteriorised together with three (lead II) limb ECG leads (see below). The trocar is threaded under the skin of the back and out through a small incision at the mid-scapular region. A ground ECG electrode is inserted subcutaneously using a 20 gauge needle with the lead wire threaded through it. To place the other ECG electrodes, a small incision is made in the anterior chest region over the heart and ECG leads are inserted into the subcutaneous muscle layer in the region of the heart using a 20 guage needle. Other ECG leads are inserted into the subcutaneous muscle layer in the region near the base of the neck and shoulder (right side). The animal is returned to a clean recovery-cage with free access to food and water. The treatment and observational period for each animal commenced after a 24-hour recovery period.
A 15 min observational period is recorded followed by the intravenous infusion regime of the test compound at an initial dose of 2.0 μmol/kg/min (at 1 ml/hr). This rate is doubled every 5 minutes until one of the following effects is observed:
Blood pressure (BP), heart rate (HR) and ECG variables are continuously recorded while behavioral responses are also monitored and the total accumulative drug dose and drug infusion rate at which the response (such as convulsion, piloerection, ataxia, restlessness, compulsive chewing, lip-smacking, wet dog shake etc.) occurred are recorded.
Electrocardiograph (ECG) parameters: PR, QRS, QT1 (peak of T-wave), QT2 (midpoint of T-wave deflection) and hemodynamic parameters: BP and HR are analyzed using the automated analysis function in LabView (National Instruments) with a customized autoanalysis software (Nortran Pharmaceuticals). The infused dose producing 25% from control (D25) for all recorded ECG variables is determined.
Table 2 describes the results of the tests as D25 (micromol/kg) which are the doses required to produce a 25% increase in the ECG parameter measured (ne=not estimated). The increases in P-R interval and QRS interval indicate cardiac sodium channel blockade while the increase in Q-T interval indicates cardiac potassium channel blockade.

In the case of `COc1ccc(CCCOc2cccn3cc(C)nc23)cc1OC` [Compound 3, 8-[3-(3,4-DIMETHOXYPHENYL)PROPOXY]-2-METHYLIMIDAZO[1,2-α]PYRIDINE MONOHYDROCHLORDE], where the note is “indicates cardiac potassium channel blockade”, the “D25 QT (dose required to produce a 25% increase in Q-T interval)” value is 16 µmol/kg. For the same molecule, where the note is “indicates cardiac sodium channel blockade”, the “D25 PR (dose required to produce a 25% increase in P-R interval)” value worked out at 21 µmol/kg.
